Laboratory results published in PMC9321742 (Viruses, 2022).
Where two headings read alike, the source gives them in different places.

Assays:
SARS-CoV-2 delta = assay: microbe, parasite or virus in culture; assay type: cell-based; details: VERO E6, plus 0.5 µM P-gp inhibitor CP-100356, MOI 0.005, 72 h, read-out: IC50 Delta Mean ± SD
SARS-CoV-2 omicron BA.1 = assay: microbe, parasite or virus in culture; assay type: cell-based; details: read-out: IC50 BA.1 Mean ± SD
SARS-CoV-2 omicron BA.2 = assay: microbe, parasite or virus in culture; assay type: cell-based; details: read-out: IC50 BA.2 Mean ± SD
in vitro = details: African green monkey
[1] = Severe acute respiratory syndrome coronavirus 2, Vero C1008
[2] = Severe acute respiratory syndrome coronavirus 2, Vero C1008, VERO E6, plus 0.5 µM P-gp inhibitor CP-100356, MOI 0.005, 72 h

O=c1nc(NO)ccn1[C@@H]1O[C@H](CO)[C@@H](O)[C@H]1O [EIDD-1931]
IC50 (SARS-CoV-2 delta): 1500 ± 700 nM | IC50 (SARS-CoV-2 omicron BA.1): 1000 ± 500 nM | IC50 (SARS-CoV-2 omicron BA.2): 800 ± 10 nM | CC50 (VERO E6 cells): 43.3 ± 6 µM

CC(C)(C)[C@H](NC(=O)C(F)(F)F)C(=O)N1C[C@H]2[C@@H]([C@H]1C(=O)N[C@H](C#N)C[C@@H]1CCNC1=O)C2(C)C [Nirmatrelvir]
IC50 (SARS-CoV-2 delta; [1]): 60 ± 10 nM | IC50 (SARS-CoV-2 omicron BA.1; [2]): 40 ± 20 nM | IC50 (SARS-CoV-2 omicron BA.2; [2]): 40 ± 10 nM | CC50 (VERO E6 cells; African green monkey): 40.7 ± 4.4 µM | CC50 (in vitro): 69.6 ± 1 µM

CCC(CC)COC(=O)[C@H](C)N[P@](=O)(OC[C@H]1O[C@@](C#N)(c2ccc3c(N)ncnn23)[C@H](O)[C@@H]1O)Oc1ccccc1 [Remdesivir]
IC50 (SARS-CoV-2 delta; [1]): 110 ± 80 nM | IC50 (SARS-CoV-2 omicron BA.1; [2]): 50 ± 40 nM | IC50 (SARS-CoV-2 omicron BA.2; [2]): 80 ± 10 nM

CP-100356 hydrochloride
Decrease of cell viability (VERO E6 cells): 20%
